Measured values reported in patent US8637677B2, “Organic dicarboxylic acids, salts and preparation method thereof” (Southeast University, priority 2009, dated 2014).

Legend:
[1] = test system: in vitro eye lens of rabbits; experiment: resisting oxidative damage to in vitro eye lens of rabbits induced by H2O2 (lens opacification grading); assay type: cell-based; conditions: rabbit lens; for Observation Results + (number of lenses with mild opacity, degree I) / Observation Results ++ (number of lenses with moderate opacity, degree II) / Percentages for different degrees % + Degree (I) / Percentages for different degrees % >++ Degrees(I, II) / Observation Results +++ (number of lenses totally opacified, degree III): vitamin C 1 mmol/L; for inhibitory effects on oxidative damage to in vitro eye lens of rabbits induced by H2O2: sample 0.5 mmol/L, table 1
Excerpt: (§1) Some typical compounds are selected for the research on the capability of in vitro resisting oxidative damage to crystalline lens induced by H2O2. The experiments are illustrated as follows:
(§2) Kill rats and rabbits, take out their eyeballs and rinse with saline containing 500 u/mL penicillin, split the eyeball from the posterior to remove eyeball wall and vitreous body, strip off the suspensory ligament, take out the crystalline lens and wash with PBS solution containing 500 u/mL penicillin and 0.5 mg/mL streptomycin for 5 min Before experiment, check with anatomical lens to confirm that there is no opacification or other abnormal condition in the crystalline lens, then place the crystalline lens in the sterilized 12-well plate containing 2 mL DMEM/high glucose (a product from Beijing Thermo Fisher Scientific Biochemical Product Co., Ltd.) sterile culture solution (which contains 100 u/mL penicillin and 0.1 mg/mL streptomycin), add different compounds for screening and pre-culture in a incubator with temperature of 37° C., humidity of 95% and 5% CO2 for 1 h, subsequently add 2 mL DEME culture solution containing H2O2 and FeCl3 (namely, total 4 mL culture solution in each well) (the total concentration of H2O2 in each well is 2% for rabbits, and 5% for rats, and the concentrations of FeCl3 are all 0.02%), culture under the same conditions for 24 hours. The experiments are divided into several groups as below and carried out in batches, with each batch provided with negative control group and model group.
(§3) A. Negative control group: DMEM culture solution without H2O2.
(§4) B. Model group (oxidative damage group): DMEM culture solution containing H2O2 and FeCl3.
(§5) C. Vitamin C group: besides the ingredients of the model group, further containing vitamin C (the final concentration is 1 mmol/L).
(§6) D. Bendazac lysine (BDL) group (BDL is provided by Zhejiang Shapuaisi Pharmaceutical Co. Ltd., and its purity is more than 98.5%): besides the ingredients of model group, further containing BDL (the final concentration is 0.5 mmol/L).
(§7) E. Sample group: besides the ingredients of model group, further containing sample (the final concentration is 0.5 mmol/L).
(§8) Evaluation criteria: according to large amount of experiments on the model group, the ratio between the percentage of different degrees of lens opacification in the groups and the percentage of different degrees of lens opacification in the model group is utilized as the definition, wherein, for slight improvement (√), the percentage of ++ (degrees II, III) should be lower than 67%, and the percentage of + (degree I) should be higher than 33%; for moderate improvement (√√), the percentage of ++(degrees II, III) further decreases; and the percentage of 0 (−) appears; for significant improvement (√√√), the percentage of ++ (degrees II, III) and + (degree I) disappears, and the lens are almost transparent.

[2] = test system: in vitro eye lens of rats; experiment: resisting oxidative damage to in vitro eye lens of rats induced by H2O2 (lens opacification grading); assay type: cell-based; conditions: rat lens; for Comments (improvement versus model group) / Observation Results + (number of lenses with mild opacity, degree I) / Observation Results ++ (number of lenses with moderate opacity, degree II) / Percentages % + Degree (I) / Percentages % >++ Degrees (II, III) / Observation Results +++ (number of lenses totally opacified, degree III): 5% H2O2 + 0.02% FeCl3, 24 h culture, sample and BDL 0.5 mmol/L; for Observation Results + (number of lenses with mild opacity, degree I) / Observation Results ++ (number of lenses with moderate opacity, degree II) / Percentages % + Degree (I) / Percentages % >++ Degrees (II, III) / Observation Results +++ (number of lenses totally opacified, degree III): vitamin C 1 mmol/L; for inhibitory effects on oxidative damage to in vitro eye lens of rats induced by H2O2: sample 0.5 mmol/L, summary of table 2
Excerpt: as §1, §2, §3, §4, §5, §6, §7
as §8, with “lens turbidity” for “lens opacification”, “than 72%,” for “than 67%,”, “than 20%;” for “than 33%;”, “improvement (√√)” for “improvement (√√),”, “and +(degree” for “and + (degree”

[3] = 2% H2O2 + 0.02% FeCl3, 24 h culture, sample and BDL 0.5 mmol/L

SMILES	Observation Results + (number of lenses with mild opacity, degree I) [1, 3]	Observation Results ++ (number of lenses with moderate opacity, degree II) [1, 3]	Percentages for different degrees % + Degree (I) [1, 3] [%]	Percentages for different degrees % >++ Degrees(I, II) [1, 3] [%]	inhibitory effects on oxidative damage to in vitro eye lens of rabbits induced by H2O2 [1]	Comments (improvement versus model group) [2]	Observation Results + (number of lenses with mild opacity, degree I) [2]	Observation Results ++ (number of lenses with moderate opacity, degree II) [2]	Percentages % + Degree (I) [2] [%]	Percentages % >++ Degrees (II, III) [2] [%]	inhibitory effects on oxidative damage to in vitro eye lens of rats induced by H2O2 [2]	Observation Results +++ (number of lenses totally opacified, degree III) [1, 3]	Observation Results +++ (number of lenses totally opacified, degree III) [2]	Comments (improvement versus model group) [1, 3]
O=C([O-])C(Oc1nn(Cc2ccccc2)c2ccccc12)C(=O)[O-].[Na+].[Na+] [Y1, 2-(1-benzyl-1H-indazole-3-oxyl) malonate disodium]	4	3	57	43	not significant	✓	4	1	80	20	showing inhibitory effects	–	–	–
NCCCC[C@H](N)C(=O)O.NCCCC[C@H](N)C(=O)O.O=C(O)C(Oc1nn(Cc2ccccc2)c2ccccc12)C(=O)O [Y5, 2-(1-benzyl-1H-indazole-3-oxyl) malonate dilysine]	2	2	33	67	not significant	–	1	4	17	83	showing inhibitory effects	2	1	–
O=C([O-])C(Oc1nn(Cc2ccccc2)c2ccccc12)C(=O)[O-].[K+].[K+] [Y2, 2-(1-benzyl-1H-indazole-3-oxyl) malonate dipotassium]	2	3	29	71	not significant	–	–	3	–	100	not significant	2	3	–
N[C@@H](Cc1c[nH]cn1)C(=O)O.N[C@@H](Cc1c[nH]cn1)C(=O)O.O=C(O)C(Oc1nn(Cc2ccccc2)c2ccccc12)C(=O)O [Y4, 2-(1-benzyl-1H-indazole-3-oxyl) malonate dihistidine]	14	7	67	33	showing inhibitory effects	✓	18	3	86	14	showing inhibitory effects	–	–	✓
